Here are results for 29 compounds from patent US9067871B2, “Aminotetraline derivatives, pharmaceutical compositions containing them, and their use in therapy” (ABBVIE DEUTSCHLAND GMBH & CO KG, priority 2009, dated 2015).

Where a name gives a salt, the structure may show the parent alone.

The target in one experiment is human GlyT1c transporter (Homo sapiens (Human), UniProt P48067). In words: Radioligand binding assay using recombinant CHO cell membranes expressing human GlyT1. As to conditions: human GlyT1c-expressing CHO cell membranes; hydrochloride; read-out: radioligand binding Kiapp. The source says: 2. Radioligand binding assays using recombinant CHO cell membranes expressing human GlyT1: […]
Chain of human GlyT1c transporter (P48067 whole entry): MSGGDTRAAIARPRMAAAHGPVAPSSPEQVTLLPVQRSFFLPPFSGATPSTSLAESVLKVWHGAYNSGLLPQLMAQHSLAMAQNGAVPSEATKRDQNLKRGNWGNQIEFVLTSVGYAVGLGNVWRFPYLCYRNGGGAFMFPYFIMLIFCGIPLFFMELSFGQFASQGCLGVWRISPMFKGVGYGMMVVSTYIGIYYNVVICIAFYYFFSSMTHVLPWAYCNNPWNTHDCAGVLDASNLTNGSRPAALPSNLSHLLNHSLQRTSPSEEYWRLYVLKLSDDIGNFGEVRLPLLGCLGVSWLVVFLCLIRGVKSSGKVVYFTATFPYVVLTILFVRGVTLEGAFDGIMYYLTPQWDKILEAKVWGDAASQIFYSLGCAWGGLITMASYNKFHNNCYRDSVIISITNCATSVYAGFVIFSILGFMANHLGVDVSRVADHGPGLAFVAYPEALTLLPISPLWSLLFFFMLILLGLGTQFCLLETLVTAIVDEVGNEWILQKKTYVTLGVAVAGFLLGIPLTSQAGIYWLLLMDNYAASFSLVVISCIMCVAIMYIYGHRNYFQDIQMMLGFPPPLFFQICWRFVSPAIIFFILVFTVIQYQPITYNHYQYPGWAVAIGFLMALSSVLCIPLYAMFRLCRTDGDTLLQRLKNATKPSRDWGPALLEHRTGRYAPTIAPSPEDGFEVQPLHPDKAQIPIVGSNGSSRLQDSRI
With `O=S(=O)(CC1CC1)NCCOc1ccc2c(c1)C(Cc1ccccc1)C(N1CCC1)CC2` (centres unmarked) [Example 142, N-(2-{[7-(Azetidin-1-yl)-8-benzyl-5,6,7,8-tetrahydronaphthalen-2-yl]oxy}ethyl)-1-cyclopropylmethanesulfonamide hydrochloride], the Ki is at most 100 nM.

Still in this experiment, the particulars now being: human GlyT1c-expressing CHO cell membranes; read-out: radioligand binding Kiapp.
`CCN(CCOc1ccc2c(c1)C(Cc1ccccc1)C(N1CCCC1)CC2)S(=O)(=O)c1cnn(C)c1` (centres unmarked) [Example 124, N-(2-{[8-Benzyl-7-(pyrrolidin-1-yl)-5,6,7,8-tetrahydronaphthalen-2-yl]oxy}ethyl)-N-ethyl-1-methyl-1H-pyrazole-4-sulfonamide hydrochloride]: the Ki was at most 1000 nM.

For `NC1CCc2ccc(OCCNS(=O)(=O)CCC3CC3)cc2C1Cc1ccc(Cl)c(Cl)c1` (centres unmarked) [Example 125, N-(2-{[7-Amino-8-(3,4-dichlorobenzyl)-5,6,7,8-tetrahydronaphthalen-2-yl]oxy}ethyl)-2-cyclopropylethanesulfonamide hydrochloride], the Ki is at most 1000 nM.

As for `CN(CCOc1ccc2c(c1)C(Cc1ccc(Cl)c(Cl)c1)C(N1CCCC1)CC2)S(=O)(=O)CC1CC1` (centres unmarked) [Example 126, C-Cyclopropyl-N-{2-[8-(3,4-dichloro-benzyl)-7-pyrrolidin-1-yl-5,6,7,8-tetrahydronaphthalen-2-yloxy]-ethyl}-N-methyl-methanesulfonamide hydrochloride], the Ki was at most 10 nM.

Take `CN(CCOc1ccc2c(c1)C(Cc1ccccc1)C(N1CCCC1)CC2)S(=O)(=O)CC1CC1` (centres unmarked) [Example 127, N-(2-{[8-Benzyl-7-(pyrrolidin-1-yl)-5,6,7,8-tetrahydronaphthalen-2-yl]oxy}ethyl)-1-cyclopropyl-N-methylmethanesulfonamide hydrochloride]: the Ki is at most 100 nM.

`NC1CCc2ccc(OCCNS(=O)(=O)CC3CC3)cc2C1Cc1ccc(Cl)cc1` (centres unmarked) [Example 128, N-(2-{[7-Amino-8-(4-chlorobenzyl)-5,6,7,8-tetrahydronaphthalen-2-yl]oxy}ethyl)-1-cyclopropylmethanesulfonamide hydrochloride]: the Ki is at most 100 nM.

In the case of `CN(CCOc1ccc2c(c1)C(Cc1ccc(Cl)cc1)C(N)CC2)S(=O)(=O)CC1CC1` (centres unmarked) [Example 129, N-(2-{[7-Amino-8-(4-chlorobenzyl)-5,6,7,8-tetrahydronaphthalen-2-yl]oxy}ethyl)-1-cyclopropyl-N-methylmethanesulfonamide hydrochloride], the Ki is at most 10 nM.

Turning to `CN(CCOc1ccc2c(c1)C(Cc1ccccc1)C(N)CC2)S(=O)(=O)CC1CC1` (centres unmarked) [Example 130, N-[2-(7-Amino-8-benzyl-5,6,7,8-tetrahydro-naphthalen-2-yloxy)-ethyl]-C-cyclopropyl-Nmethyl-methanesulfonamide hydrochloride], the Ki was at most 10 nM.

For `NC1CCc2ccc(OCCNS(=O)(=O)CC3CC3)cc2C1Cc1ccc(F)c(F)c1` (centres unmarked) [Example 131, N-(2-{[7-Amino-8-(3,4-difluorobenzyl)-5,6,7,8-tetrahydronaphthalen-2-yl]oxy}ethyl)-1-cyclopropylmethanesulfonamide hydrochloride], the Ki is at most 100 nM.

As to `O=S(=O)(CC1CC1)NCCOc1ccc2c(c1)C(Cc1ccc(Cl)c(Cl)c1)C(N1CCCC1)CC2` (centres unmarked) [Example 132, C-Cyclopropyl-N-{2-[8-(3,4-dichloro-benzyl)-7-pyrrolidin-1-yl-5,6,7,8-tetrahydronaphthalen-2-yloxy]-ethyl}-methanesulfonamide hydrochloride], the Ki is at most 100 nM.

Take `O=S(=O)(CC1CC1)NCCOc1ccc2c(c1)C(Cc1ccccc1)C(N1CCCC1)CC2` (centres unmarked) [Example 133, N-(2-{[8-Benzyl-7-(pyrrolidin-1-yl)-5,6,7,8-tetrahydronaphthalen-2-yl]oxy}ethyl)-1-cyclopropylmethanesulfonamide hydrochloride]: the Ki is at most 100 nM.

Consider `O=S(=O)(CC1CC1)NCCOc1ccc2c(c1)C(Cc1ccc(Cl)c(Cl)c1)C(N1CCC(F)C1)CC2` (centres unmarked) [Example 134, 1-Cyclopropyl-N-[2-({8-(3,4-dichlorobenzyl)-7-[3-fluoropyrrolidin-1-yl]-5,6,7,8-tetrahydronaphthalen-2-yl}oxy)ethyl]methanesulfonamide], for which the Ki was at most 1000 nM.

For `O=S(=O)(CC1CC1)NCCOc1ccc2c(c1)C(Cc1ccc(Cl)c(Cl)c1)C(N1CCC1)CC2` (centres unmarked) [Example 135, N-(2-{[7-(Azetidin-1-yl)-8-(3,4-dichlorobenzyl)-5,6,7,8-tetrahydronaphthalen-2-yl]oxy}ethyl)-1-cyclopropylmethanesulfonamide], the Ki was at most 100 nM.

With `O=S(=O)(CC1CC1)NCCOc1ccc2c(c1)C(Cc1ccccc1)C(N1CCC(F)C1)CC2` (centres unmarked) [Example 136, N-[2-({8-Benzyl-7-[3-fluoropyrrolidin-1-yl]-5,6,7,8-tetrahydronaphthalen-2-yl}oxy)ethyl]-1-cyclopropylmethanesulfonamide hydrochloride], the Ki was at most 100 nM.

As to `CNC1CCc2ccc(OCCNS(=O)(=O)CC3CC3)cc2C1Cc1ccccc1` (centres unmarked) [Example 137, N-(2-{[8-Benzyl-7-(methylamino)-5,6,7,8-tetrahydronaphthalen-2-yl]oxy}ethyl)-1-cyclopropylmethanesulfonamide hydrochloride], the Ki is at most 10 nM.

As to `O=S(=O)(CC1CC1)NCCOc1ccc2c(c1)C(Cc1cccc(F)c1)C(N1CCCC1)CC2` (centres unmarked) [Example 138, 1-Cyclopropyl-N-(2-{[8-(3-fluorobenzyl)-7-(pyrrolidin-1-yl)-5,6,7,8-tetrahydronaphthalen-2-yl]oxy}ethyl)methanesulfonamide hydrochloride], the Ki is at most 10 nM.

On to `O=S(=O)(CC1CC1)NCCOc1ccc2c(c1)C(Cc1cccc(F)c1)C(N1CCC1)CC2` (centres unmarked) [Example 139, N-(2-{[7-(Azetidin-1-yl)-8-(3-fluorobenzyl)-5,6,7,8-tetrahydronaphthalen-2-yl]oxy}ethyl)-1-cyclopropylmethanesulfonamide hydrochloride], for which the Ki was at most 10 nM.

Consider `Cn1cnc(S(=O)(=O)NCCOc2ccc3c(c2)C(Cc2cccc(F)c2)C(N2CCCC2)CC3)c1` (centres unmarked) [Example 140, N-(2-{[8-(3-Fluorobenzyl)-7-(pyrrolidin-1-yl)-5,6,7,8-tetrahydronaphthalen-2-yl]oxy}ethyl)-1-methyl-1H-imidazole-4-sulfonamide hydrochloride], for which the Ki was at most 10 nM.

As to `Cn1cnc(S(=O)(=O)NCCOc2ccc3c(c2)C(Cc2cccc(F)c2)C(N2CCC2)CC3)c1` (centres unmarked) [Example 141, N-(2-{[7-(Azetidin-1-yl)-8-(3-fluorobenzyl)-5,6,7,8-tetrahydronaphthalen-2-yl]oxy}ethyl)-1-methyl-1H-imidazole-4-sulfonamide hydrochloride], the Ki is at most 10 nM.

`Cn1cnc(S(=O)(=O)NCCOc2ccc3c(c2)C(Cc2ccccc2)C(N2CCC2)CC3)c1` (centres unmarked) [Example 145, N-(2-{[7-(Azetidin-1-yl)-8-benzyl-5,6,7,8-tetrahydronaphthalen-2-yl]oxy}ethyl)-1-methyl-1H-imidazole-4-sulfonamide]: the Ki is at most 10 nM.

As to `O=S(=O)(NCCOc1ccc2c(c1)C(Cc1ccccc1)C(N1CCC1)CC2)C1CCC1` (centres unmarked) [Example 147, N-(2-{[7-(Azetidin-1-yl)-8-benzyl-5,6,7,8-tetrahydronaphthalen-2-yl]oxy}ethyl)cyclobutanesulfonamide], the Ki was at most 100 nM.

As to `CCCS(=O)(=O)NCCOc1ccc2c(c1)C(Cc1ccccc1)C(N1CCC1)CC2` (centres unmarked) [Example 148, Propane-1-sulfonic acid [2-(7-azetidin-1-yl-8-benzyl-5,6,7,8-tetrahydro-naphthalen-2-yloxy)-ethyl]-amide], the Ki is at most 100 nM.

Regarding `Cn1ccc(S(=O)(=O)NCCOc2ccc3c(c2)C(Cc2cccc(F)c2)C(N2CCCC2)CC3)c1` (centres unmarked) [Example 149, N-(2-{[8-(3-Fluorobenzyl)-7-(pyrrolidin-1-yl)-5,6,7,8-tetrahydronaphthalen-2-yl]oxy}ethyl)-1-methyl-1H-pyrrole-3-sulfonamide hydrochloride], the Ki is at most 100 nM.

On to `NC1CCc2ccc(OCCNS(=O)(=O)CC3CC3)cc2C1Cc1cc(F)cc(Cl)c1` (centres unmarked) [Example 150, N-(2-{[7-Amino-8-(3-chloro-5-fluorobenzyl)-5,6,7,8-tetrahydronaphthalen-2-yl]oxy}ethyl)-1-cyclopropylmethanesulfonamide hydrochloride], for which the Ki is at most 10 nM.

On to `Cn1cnc(S(=O)(=O)NCCOc2ccc3c(c2)C(Cc2cc(F)cc(Cl)c2)C(N)CC3)c1` (centres unmarked) [Example 151, N-(2-{[7-Amino-8-(3-chloro-5-fluorobenzyl)-5,6,7,8-tetrahydronaphthalen-2-yl]oxy}ethyl)-1-methyl-1H-imidazole-4-sulfonamide hydrochloride], for which the Ki was at most 10 nM.

Take `Cn1cnc(S(=O)(=O)NCCOc2ccc3c(c2)C(Cc2ccccc2)C(N2CCC(F)C2)CC3)c1` (centres unmarked) [Example 152, N-[2-({8-Benzyl-7-[3-fluoropyrrolidin-1-yl]-5,6,7,8-tetrahydronaphthalen-2-yl}oxy)ethyl]-1-methyl-1H-imidazole-4-sulfonamide hydrochloride]: the Ki is at most 10 nM.

For the compound `Cn1cnc(S(=O)(=O)NCCOc2ccc3c(c2)C(Cc2cccc(C#N)c2)C(N2CCCC2)CC3)c1` (centres unmarked) [Example 153, N-(2-{[8-(3-Cyanobenzyl)-7-(pyrrolidin-1-yl)-5,6,7,8-tetrahydronaphthalen-2-yl]oxy}ethyl)-1-methyl-1H-imidazole-4-sulfonamide], the Ki was at most 100 nM.

As for `CC(C)NC1CCc2ccc(OCCNS(=O)(=O)c3cn(C)cn3)cc2C1Cc1cccc(C#N)c1` (centres unmarked) [Example 154, N-(2-{[8-(3-Cyanobenzyl)-7-(propan-2-ylamino)-5,6,7,8-tetrahydronaphthalen-2-yl]oxy}ethyl)-1-methyl-1H-imidazole-4-sulfonamide hydrochloride], the Ki was at most 100 nM.

On to `N#Cc1cccc(CC2c3cc(OCCNS(=O)(=O)CC4CC4)ccc3CCC2N2CCCC2)c1` (centres unmarked) [Example 155, N-(2-{[8-(3-Cyanobenzyl)-7-(pyrrolidin-1-yl)-5,6,7,8-tetrahydronaphthalen-2-yl]oxy}ethyl)-1-cyclopropylmethanesulfonamide hydrochloride], for which the Ki was at most 1000 nM.
